Laboratory results reported in patent publication US10640495B2, “Heterocycle derivatives having TrkA inhibitory activity” (Shionogi & Co., Ltd., priority 2015, dated 2020).
Like-named read-outs stand apart in the source and are kept apart here.

Biological target: human TrkA (Homo sapiens (Human), UniProt P04629)
Assay: Human TrkA inhibition assay (Test Example 2)
Assay type: biochemical
Outline: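 Mobility-shift readout of phosphorylated versus unphosphorylated fluorescent peptide gave conversion ratio, normalized to DMSO and no-enzyme wells; IC50 by logistic fit of 10- or 15-point 3-fold dilutions. Conditions: 1 nmol/L enzyme, 15 min compound preincubation, then 500 μmol/L ATP plus 1.5 μmol/L peptide, 120 min, 37 °C.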

[1] = Table 153, human TrkA inhibition, read-out: IC50
[2] = human TrkA 1 nmol/L, ATP 500 μmol/L, 120 min at 37° C., read-out: IC50 values (TrkA phosphorylation inhibition)
[3] = Table 152, human TrkA inhibition, read-out: IC50_nM
[4] = Table 156, human TrkA inhibition, read-out: IC50
[5] = Table 155, human TrkA inhibition, read-out: IC50
[6] = Table 154, human TrkA inhibition, read-out: IC50
[7] = Table 157, human TrkA inhibition, read-out: IC50

human TrkA, sequence (P04629 440-796): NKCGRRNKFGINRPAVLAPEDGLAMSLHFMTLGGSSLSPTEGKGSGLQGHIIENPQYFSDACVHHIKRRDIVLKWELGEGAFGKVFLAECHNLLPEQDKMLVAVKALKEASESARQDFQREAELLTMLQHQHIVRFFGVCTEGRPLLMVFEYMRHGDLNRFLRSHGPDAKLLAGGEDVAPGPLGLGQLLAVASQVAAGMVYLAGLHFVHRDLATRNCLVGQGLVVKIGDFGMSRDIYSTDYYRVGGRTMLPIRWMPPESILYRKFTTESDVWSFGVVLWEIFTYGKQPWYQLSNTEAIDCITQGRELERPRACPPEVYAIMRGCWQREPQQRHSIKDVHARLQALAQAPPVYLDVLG

COCC[C@@H]1C[C@@H](NC(=O)Nc2c(C)c(C3=CCNCC3)nn2-c2ccccc2)[C@H](c2ccc(F)c(F)c2)O1 (racemic) [Compound I-55]
IC50 [1]: < 100 nM

COCCN1C[C@@H](NC(=O)Nc2c(C)c(-c3ccc(OC)nc3)nn2-c2ccccc2)[C@H](c2ccnc(F)c2)O1 [Compound I-509]
IC50 [2]: 1.3 nM

COCC[C@@H]1C[C@@H](NC(=O)Nc2c(C)c(-c3cnc(OC)nc3)nn2-c2ccccc2)[C@H](c2ccnc(F)c2)O1 [Compound I-273]
IC50 [2]: 4.7 nM

CCN1C[C@@H](NC(=O)Nc2c(C)c(-c3ccc(OC)nc3)nn2-c2ccccc2)[C@H](c2ccc(F)c(F)c2)O1 (racemic) [Compound I-627]
IC50 [2]: 4.8 nM

COCCN1C[C@@H](NC(=O)Nc2c(C)c(-c3cnc4ncnn4c3)nn2-c2ccccc2)[C@H](c2ccc(F)c(F)c2)O1 (racemic) [Compound I-44]
IC50 [3]: < 100 nM

CCN1CCC(NC(=O)c2cc(-c3nn(-c4ccccc4)c(NC(=O)N[C@@H]4CN(CCOC)O[C@H]4c4ccc(F)c(F)c4)c3C)ccn2)CC1 (racemic) [Compound I-62]
IC50 [1]: < 100 nM

COCCN1C[C@@H](NC(=O)Nc2c(C)c(C)nn2-c2ccccc2)[C@H](c2cnc(F)c(F)c2)O1 [Compound I-520]
IC50 [4]: < 100 nM

COCCN1C[C@@H](NC(=O)Nc2c(C)c(-c3cnc4c(c3)OCCO4)nn2-c2ccccc2)[C@H](c2ccc(F)c(F)c2)O1 [Compound I-463]
IC50 [5]: < 100 nM

CNS(=O)(=O)c1cc(-c2nn(-c3ccccc3)c(NC(=O)N[C@@H]3CN(CCOC)O[C@H]3c3ccnc(F)c3)c2C)cn(C)c1=O (racemic) [Compound I-178]
IC50 [6]: < 100 nM

COCCN1C[C@@H](NC(=O)Nc2c(C)c(-c3cnc(C4=CCN(C)CC4)nc3)nn2-c2ccccc2)[C@H](c2ccnc(F)c2)O1 (racemic) [Compound I-445]
IC50 [5]: < 100 nM

Cc1c(-c2cnc3c(cnn3C)c2)nn(-c2ccccc2)c1NC(=O)N[C@@H]1CN(CC(C)(C)CN(C)C)O[C@H]1c1ccc(F)c(F)c1 (racemic) [Compound I-206]
IC50 [6]: 100 to 1000 nM

COCCN1C[C@@H](NC(=O)Nc2c(C)c(OCC(C)(C)O)nn2-c2ccccc2)[C@H](c2cnc(F)c(F)c2)O1 [Compound I-82]
IC50 [2]: 22 nM

COCCN1C[C@@H](NC(=O)Nc2c(C)c(-c3cnc(C(=O)N[C@@H]4CCOC4)c(C)c3)nn2-c2ccccc2)[C@H](c2ccnc(F)c2)O1 [Compound I-172]
IC50 [1]: < 100 nM

COCCN1C[C@@H](NC(=O)Nc2c(C)c(-c3cnc(C)nc3)nn2-c2ccccc2)[C@H](c2ccc(F)c(F)c2)O1 (racemic) [Compound I-26]
IC50 [3]: < 100 nM

COCCN1C[C@@H](NC(=O)Nc2c(C)c(-c3cnc4c(c3)COC4=O)nn2-c2ccccc2)[C@H](c2ccnc(F)c2)O1 (racemic) [Compound I-259]
IC50 [6]: < 100 nM

CC(=O)N1CCC(COc2nn(-c3ccccc3)c(NC(=O)N[C@@H]3CN(CC(F)F)O[C@H]3c3ccc(F)c(F)c3)c2C)CC1 (racemic) [Compound I-565]
IC50 [4]: < 100 nM

COCCN1C[C@@H](NC(=O)Nc2c(C)c(-c3cnc4c(cnn4C)c3)nn2-c2ccc(F)c(F)c2)[C@H](c2ccc(F)c(F)c2)O1 (racemic) [Compound I-175]
IC50 [1]: < 100 nM

COCCN1C[C@@H](NC(=O)Nc2c(C)c(OCC(N)=O)nn2-c2ccccc2)[C@H](c2ccnc(F)c2)O1 (racemic) [Compound I-633]
IC50 [7]: < 100 nM

CCN1C[C@@H](NC(=O)Nc2c(C)c(OCC3CCN(C(=O)CO)CC3)nn2-c2ccccc2)[C@H](c2ccc(F)c(F)c2)O1 (racemic) [Compound I-607]
IC50 [7]: < 100 nM

COCCN1C[C@@H](NC(=O)Nc2c(C)c(-c3cnc4c(cnn4C)c3)nn2-c2ccc(F)cc2)[C@H](c2ccnc(F)c2)O1 (racemic) [Compound I-223]
IC50 [6]: < 100 nM

COCCN1C[C@@H](NC(=O)Nc2c(C)c(-c3cnc(OC)c(C(N)=O)c3)nn2-c2ccccc2)[C@H](c2cnc(OC)c(F)c2)O1 (racemic) [Compound I-102]
IC50 [1]: < 100 nM

COCCN1C[C@@H](NC(=O)Nc2c(C)c(OC3CCN(C(=O)OC(C)(C)C)CC3)nn2-c2ccccc2)[C@H](c2ccc(F)c(F)c2)O1 [Compound I-601]
IC50 [7]: < 100 nM

COCCN1C[C@@H](NC(=O)Nc2c(C)c(-c3cnc(N4CC5CC(C4)O5)nc3)nn2-c2ccccc2)[C@H](c2cnc(F)c(F)c2)O1 [Compound I-514]
IC50 [4]: < 100 nM

COCCN1C[C@@H](NC(=O)Nc2c(C)c(-c3cnc4c(c3)OCCN4)nn2-c2ccccc2)[C@H](c2ccnc(F)c2)O1 (racemic) [Compound I-281]
IC50 [6]: < 100 nM

Cc1c(-c2cnc3c(cnn3C)c2)nn(-c2ccccc2)c1NC(=O)N[C@@H]1CN(C)O[C@H]1c1ccc(F)c(F)c1 (racemic) [Compound I-207]
IC50 [6]: < 100 nM

CNC(=O)c1ccc(-c2nn(-c3ccccc3)c(NC(=O)N[C@@H]3CN(CCOC)O[C@H]3c3ccc(F)c(F)c3)c2C)cn1 [Compound I-458]
IC50 [2]: 0.52 nM

COCCN1C[C@@H](NC(=O)Nc2c(C)c(N3CC(c4ccc(F)cc4)C3)nn2-c2ccccc2)[C@H](c2ccnc(F)c2)O1 (racemic) [Compound I-335]
IC50 [5]: < 100 nM

COCCN1C[C@@H](NC(=O)Nc2c(C)c(-c3cnc4occc4c3)nn2-c2ccccc2)[C@H](c2ccnc(F)c2)O1 (racemic) [Compound I-517]
IC50 [4]: < 100 nM

COCCN1C[C@@H](NC(=O)Nc2c(C)c(-c3cnn(C)c3)nn2-c2ccc(F)c(F)c2)[C@H](c2ccc(F)c(F)c2)O1 (racemic) [Compound I-86]
IC50 [1]: < 100 nM

COCCC1C[C@@H](NC(=O)Nc2c(C)c(-c3cnc4c(cnn4C)c3)nn2-c2ccccc2)[C@H](c2ccccc2)O1 (some centres unmarked) [Compound I-98]
IC50 [1]: < 100 nM

CC(=O)N1CCC(COc2nn(-c3ccccc3)c(NC(=O)N[C@@H]3CN(CCF)O[C@H]3c3ccc(F)c(F)c3)c2C)CC1 (racemic) [Compound I-564]
IC50 [4]: < 100 nM

COCCN1C[C@@H](NC(=O)Nc2c(C)c(-c3cnc4c(c3)CCN4)nn2-c2ccccc2)[C@H](c2ccnc(F)c2)O1 (racemic) [Compound I-351]
IC50 [5]: < 100 nM

COCCN1C[C@@H](NC(=O)Nc2c(C)c(-c3cnc(OCCN(C)C)nc3)nn2-c2ccccc2)[C@H](c2ccnc(F)c2)O1 (racemic) [Compound I-409]
IC50 [5]: < 100 nM

COCCN1C[C@@H](NC(=O)Nc2c(C)c(-c3ccnc(C(=O)NOC)c3)nn2-c2ccccc2)[C@H](c2cnc(F)c(F)c2)O1 [Compound I-233]
IC50 [2]: 1.5 nM

COCCN1C[C@@H](NC(=O)Nc2c(C)c(-c3cnc(C(N)=O)c(C)c3)nn2-c2ccccc2)[C@H](c2cnc(F)c(F)c2)O1 [Compound I-252]
IC50 [6]: < 100 nM

COCCN1C[C@@H](NC(=O)Nc2c(C)c(-c3cnn(C)c3)nn2-c2ccccc2)[C@H](c2ccnc(Cl)c2)O1 (racemic) [Compound I-9]
IC50 [3]: < 100 nM

COCCN1C[C@@H](NC(=O)Nc2c(C)c(-c3cnc(CO)nc3)nn2-c2ccccc2)[C@H](c2ccc(F)c(F)c2)O1 (racemic) [Compound I-34]
IC50 [3]: < 100 nM

COCCN1C[C@@H](NC(=O)Nc2c(C)c(-c3cnc(N4CC(N5CCOCC5)C4)nc3)nn2-c2ccccc2)[C@H](c2ccnc(F)c2)O1 (racemic) [Compound I-583]
IC50 [7]: < 100 nM

COCCN1C[C@@H](NC(=O)Nc2c(C)c(-c3cnc4c(c3)CC(=O)N4C)nn2-c2ccccc2)[C@H](c2ccnc(F)c2)O1 (racemic) [Compound I-291]
IC50 [2]: 2 nM

COCCN1C[C@@H](NC(=O)Nc2c(C)c(-c3ccc(COC(C)=O)nc3)nn2-c2ccccc2)[C@H](c2ccc(F)c(F)c2)O1 [Compound I-531]
IC50 [4]: < 100 nM

CCN1C[C@@H](NC(=O)Nc2c(C)c(OCC3CCN(C)CC3)nn2-c2ccccc2)[C@H](c2ccc(F)cc2)O1 (racemic) [Compound I-569]
IC50 [4]: < 100 nM

CCCN1C[C@@H](NC(=O)Nc2c(C)c(OCC3CCN(C)CC3)nn2-c2ccccc2)[C@H](c2ccc(F)c(F)c2)O1 (racemic) [Compound I-654]
IC50 [7]: < 100 nM

COCCN1C[C@@H](NC(=O)Nc2c(C)c(C3=CCNCC3)nn2-c2ccccc2)[C@H](c2cnc(F)c(F)c2)O1 (racemic) [Compound I-48]
IC50 [1]: < 100 nM

COCC[C@@H]1C[C@@H](NC(=O)Nc2c(C)c(-c3cnc4c(c3)CC(=O)N4C)nn2-c2ccccc2)[C@H](c2ccnc(F)c2)O1 [Compound I-329]
IC50 [2]: 1.7 nM

COCCN1C[C@@H](NC(=O)Nc2c(C)c(-c3cnc(OC)c(C(C)(C)O)c3)nn2-c2ccccc2)[C@H](c2ccnc(F)c2)O1 (racemic) [Compound I-308]
IC50 [6]: < 100 nM

COCCN1C[C@@H](NC(=O)Nc2c(C)c(-c3cnc(N4CCC5(COC5)C4)nc3)nn2-c2ccccc2)[C@H](c2ccnc(F)c2)O1 (racemic) [Compound I-482]
IC50 [5]: < 100 nM

COCCN1C[C@@H](NC(=O)Nc2c(C)c(C)nn2-c2ccccc2)[C@H](c2ccnc(F)c2)O1 [Compound I-521]
IC50 [4]: < 100 nM

CCN1C[C@@H](NC(=O)Nc2c(C)c(-c3cnn(C)c3)nn2-c2ccccc2)[C@H](c2ccccc2)O1 (racemic) [Compound I-3]
IC50 [2]: 120 nM

COc1ncc(-c2nn(-c3ccccc3)c(NC(=O)N[C@@H]3CN(CC(F)F)O[C@H]3c3ccc(F)c(F)c3)c2C)cn1 (racemic) [Compound I-526]
IC50 [2]: 22 nM

CCN1C[C@@H](NC(=O)Nc2c(C)c(OCC(=O)NC)nn2-c2ccccc2)[C@H](c2ccc(F)c(F)c2)O1 (racemic) [Compound I-646]
IC50 [7]: < 100 nM

COCCN1C[C@@H](NC(=O)Nc2c(C)c(-c3ccc(-c4nn[nH]n4)nc3)nn2-c2ccccc2)[C@H](c2ccc(F)c(F)c2)O1 (racemic) [Compound I-145]
IC50 [2]: 0.87 nM

COCCN1C[C@@H](NC(=O)Nc2c(C)c(-c3cnc(C(N)=O)c(F)c3)nn2-c2ccccc2)[C@H](c2cnc(F)c(F)c2)O1 (racemic) [Compound I-311]
IC50 [6]: < 100 nM

COCCN1C[C@@H](NC(=O)Nc2c(C)c(-c3cnc(OC)c(C(N)=O)c3)nn2-c2ccccc2)[C@H](c2ccnc(F)c2)O1 (racemic) [Compound I-109]
IC50 [1]: < 100 nM
